Read-outs that look alike come from different tables or passages of the source. Values belong to the molecule of their own block, whether it stands above or below them. Residues, ends and D or L forms follow the SMILES beside them. No end group written: not given here.
Tests used:
[1] = molecular target: T1, IR (Homo sapiens, UniProt P06213); assay: IR-IC50 Biacore; parameters: replacing the transmembrane domain and the intracellular domain of IR with constant domains from immunoglobulin Fc or λ subunits; made in house; host or cells: human embryonic kidney 293 cells (Bass et al.)
Target sequence in this assay (P06213 28-758 limits assumed): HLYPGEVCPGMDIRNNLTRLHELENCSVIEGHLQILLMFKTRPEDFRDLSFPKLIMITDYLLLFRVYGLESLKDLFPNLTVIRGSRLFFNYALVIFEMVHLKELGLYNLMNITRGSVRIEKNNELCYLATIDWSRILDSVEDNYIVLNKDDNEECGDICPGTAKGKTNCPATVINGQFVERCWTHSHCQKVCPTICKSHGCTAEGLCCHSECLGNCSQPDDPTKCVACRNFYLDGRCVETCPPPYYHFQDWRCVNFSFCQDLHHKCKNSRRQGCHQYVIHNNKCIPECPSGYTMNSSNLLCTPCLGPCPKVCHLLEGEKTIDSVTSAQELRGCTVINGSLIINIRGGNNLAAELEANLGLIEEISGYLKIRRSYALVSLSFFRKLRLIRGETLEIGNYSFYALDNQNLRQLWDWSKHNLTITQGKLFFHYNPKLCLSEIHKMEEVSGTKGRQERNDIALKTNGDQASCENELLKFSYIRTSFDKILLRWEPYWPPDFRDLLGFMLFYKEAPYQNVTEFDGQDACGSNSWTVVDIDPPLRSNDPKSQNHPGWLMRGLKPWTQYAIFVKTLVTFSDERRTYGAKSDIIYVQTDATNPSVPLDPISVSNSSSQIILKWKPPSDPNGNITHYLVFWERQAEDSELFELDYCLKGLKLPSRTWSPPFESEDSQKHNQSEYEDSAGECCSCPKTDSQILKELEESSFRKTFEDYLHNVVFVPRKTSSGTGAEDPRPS
Target sequence in this assay (P06213 763-1382 limits assumed): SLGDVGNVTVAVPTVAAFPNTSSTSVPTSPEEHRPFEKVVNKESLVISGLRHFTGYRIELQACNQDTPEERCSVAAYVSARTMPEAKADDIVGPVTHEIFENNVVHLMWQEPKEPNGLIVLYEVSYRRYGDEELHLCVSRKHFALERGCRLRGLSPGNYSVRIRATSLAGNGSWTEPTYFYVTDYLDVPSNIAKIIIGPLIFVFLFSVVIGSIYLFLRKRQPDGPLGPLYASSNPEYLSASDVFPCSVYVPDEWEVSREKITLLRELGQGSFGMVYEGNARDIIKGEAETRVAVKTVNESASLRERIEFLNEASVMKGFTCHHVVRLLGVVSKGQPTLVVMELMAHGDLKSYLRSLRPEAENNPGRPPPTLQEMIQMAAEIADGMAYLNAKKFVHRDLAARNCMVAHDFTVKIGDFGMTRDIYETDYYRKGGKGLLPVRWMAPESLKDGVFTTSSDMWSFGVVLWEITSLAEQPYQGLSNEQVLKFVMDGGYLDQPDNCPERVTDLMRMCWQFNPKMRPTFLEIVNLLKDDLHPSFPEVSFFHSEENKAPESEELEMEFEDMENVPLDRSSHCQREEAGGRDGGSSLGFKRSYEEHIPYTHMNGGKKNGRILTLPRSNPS

[2] = molecular target: T2, soluble human insulin receptor-immunoglobulin heavy chain chimera (sIR-Fc) (Homo sapiens, UniProt P06213); assay: Fluorescence polarization, competition with FITC-RP9 for sIR-Fc; assay type: binding; conditions: for Hill, sIR-Fc, FITC-RP9, FP: Hill slope
T2 construct: replacing the transmembrane domain and the intracellular domain of IR with constant domains from immunoglobulin Fc or λ subunits; made in house; host or cells: human embryonic kidney 293 cells (Bass et al.)
T2 sequence (P06213 28-758 limits assumed, stated change not applied): as the sequence (P06213 28-758 limits assumed) above
T2 sequence (P06213 763-956 limits assumed, stated change not applied): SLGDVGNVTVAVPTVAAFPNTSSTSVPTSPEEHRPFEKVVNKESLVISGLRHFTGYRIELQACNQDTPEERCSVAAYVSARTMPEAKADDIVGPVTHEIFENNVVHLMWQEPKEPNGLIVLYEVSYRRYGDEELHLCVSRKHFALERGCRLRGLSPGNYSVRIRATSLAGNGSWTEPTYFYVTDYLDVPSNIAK

[3] = tested on: MCF-7 cells; assay: MCF-7 cell proliferation assay, IGF-1R agonist format; assay type: cell-based, human; conditions: for MCF-7 Agonist: MCF-7 cell proliferation, agonist effect
Description: ; FIGS. 65A-65F), and were used for subsequent experiments.

[4] = tested on: MiaPaCa cells; assay: MiaPaCa cell proliferation assay, IGF-1R agonist format; assay type: cell-based, human; conditions: for MiaPaCa Agonist: MiaPaCa cell proliferation, agonist effect
[5] = molecular target: T3, IGF-1R (Homo sapiens, UniProt P08069); assay: TR-FRET competition with biotinylated-20E2 for rhIGF-1R; conditions: TR-FRET (rhIGF-1R, b-20E2) versus FP (sIR-Fc), summary of Table 22
T3 sequence (P08069 31-736 limits assumed): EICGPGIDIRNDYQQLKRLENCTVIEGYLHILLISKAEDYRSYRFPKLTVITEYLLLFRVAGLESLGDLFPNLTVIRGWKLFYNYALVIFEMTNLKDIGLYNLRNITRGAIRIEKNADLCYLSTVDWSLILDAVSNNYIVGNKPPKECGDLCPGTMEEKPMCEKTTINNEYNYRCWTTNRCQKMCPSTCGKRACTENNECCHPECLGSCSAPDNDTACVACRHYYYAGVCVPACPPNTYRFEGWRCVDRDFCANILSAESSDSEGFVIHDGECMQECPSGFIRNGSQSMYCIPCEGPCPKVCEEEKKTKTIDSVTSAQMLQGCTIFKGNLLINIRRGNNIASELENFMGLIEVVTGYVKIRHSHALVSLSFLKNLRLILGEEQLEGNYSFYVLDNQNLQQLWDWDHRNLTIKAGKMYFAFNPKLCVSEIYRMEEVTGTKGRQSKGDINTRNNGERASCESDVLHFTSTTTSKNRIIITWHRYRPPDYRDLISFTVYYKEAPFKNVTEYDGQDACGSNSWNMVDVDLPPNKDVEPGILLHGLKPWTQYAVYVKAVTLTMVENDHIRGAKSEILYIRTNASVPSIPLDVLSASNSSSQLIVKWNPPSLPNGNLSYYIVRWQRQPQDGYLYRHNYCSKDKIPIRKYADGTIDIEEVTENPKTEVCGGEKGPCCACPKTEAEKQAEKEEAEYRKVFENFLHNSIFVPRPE
T3 sequence (P08069 741-935 limits assumed): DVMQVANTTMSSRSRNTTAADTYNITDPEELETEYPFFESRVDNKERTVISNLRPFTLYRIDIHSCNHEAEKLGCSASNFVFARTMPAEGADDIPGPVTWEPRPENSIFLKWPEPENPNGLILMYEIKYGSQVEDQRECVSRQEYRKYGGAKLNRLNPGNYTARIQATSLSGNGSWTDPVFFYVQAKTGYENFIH

[6] = tested on: FDC-P2 cells expressing the IL-3 and human IGF-1R receptors; assay: IGF-1 proliferation assay in FDC-P2 cells, agonist format; conditions: for agonist activity at IGF-1R, in words / EC50: FDC-P2 cells
[7] = tested on: FDC-P2 cells expressing the IL-3 and human IGF-1R receptors; assay: IGF-1 proliferation assay in FDC-P2 cells, antagonist format; conditions: FDC-P2 cells
[8] = molecular target: T4, human insulin receptor (HIR) (Homo sapiens, UniProt P06213); assay: Insulin receptor binding, competition with 125I-labeled insulin (HIR Kd); conditions: read-out: IC50 (nM), HIR, 125I-insulin, RRA; target HIR; label 125I-insulin; radio-receptor assay
T4 construct: made in house
T4 sequence (P06213 28-758 limits assumed): as the sequence (P06213 28-758 limits assumed) above
T4 sequence (P06213 763-1382 limits assumed): as the sequence (P06213 763-1382 limits assumed) above

[9] = molecular target: T2, soluble human insulin receptor-immunoglobulin heavy chain chimera (sIR-Fc); assay: TR-FRET competition with biotinylated RP9 (b-RP9) for sIR-Fc; assay type: binding; conditions: for Hill, sIR-Fc, b-RP9, FRET: Hill slope, target sIR-Fc, label b-RP9, TR-FRET
[10] = molecular target: T2, soluble human insulin receptor-immunoglobulin heavy chain chimera (sIR-Fc); assay: TR-FRET competition with biotinylated S175 (b-S175) for sIR-Fc; assay type: binding; conditions: target sIR-Fc, label b-S175; for Hill, sIR-Fc, b-S175, FRET: Hill slope
[11] = tested on: soluble human insulin mini-receptor (mIR); assay: Fluorescence polarization, competition with FITC-RP9 for mIR; assay type: binding
Experimental: The FP assays were performed in a 384-well black microplate with a final volume of 30 μl.

[12] = tested on: free fat cells (adipocytes); assay: Adipocyte / free fat cell (FFC) assay, 3H glucose incorporation into lipid
[13] = molecular target: T5, soluble HIR ectodomain (sIR) (Homo sapiens, UniProt P06213); assay: Fluorescence polarization, competition with FITC-RP9 for sIR; assay type: binding; conditions: Hill slope, target sIR, label FITC-RP9
T5 construct: soluble HIR ectodomain (sIR); Kristensen et al., 1998
T5 sequence (P06213 28-758 limits assumed): as the sequence (P06213 28-758 limits assumed) above
T5 sequence (P06213 763-956 limits assumed): as the sequence (P06213 763-956 limits assumed, stated change not applied) above

[14] = molecular target: T1, IR; assay: Phage ELISA, binding of phage clones to IR (ratio over background); conditions: ratio of IR divided by ratio of IGF-1R
Target sequence in this assay (P06213 28-758 limits assumed): as the sequence (P06213 28-758 limits assumed) above
Target sequence in this assay (P06213 763-956 limits assumed): as the sequence (P06213 763-956 limits assumed, stated change not applied) above

[15] = molecular target: T3, IGF-1R; assay: Phage ELISA, binding of phage clones to IGF-1R (ratio over background); conditions: ratio of IGF-1R divided by ratio of IR
[16] = target sIR-Fc, label FITC-RP9, fluorescence polarization
[17] = free fat cell assay class, Table 9

IC50 [1]: 1000 nM
Molecule: GSRPVFHEQFYEWFVDQLGL [RP-1]

EC50 ([3]; MCF-7 cells, serum-free conditions, read-out: ED50, proliferation): 5 nM | EC50 ([4]; MiaPaCa cells, serum-free conditions, read-out: ED50, proliferation): 5 nM
Molecule: Insulin-like growth factor 1 [IGF-1, reference compound]

Hill, sIR-Fc, b-RP9, FRET [9]: −0.74 | Hill, sIR-Fc, b-S175, FRET [10]: −0.58 | Hill, sIR, FITC-RP9, FP [13]: −0.36 | Hill, sIR-Fc, FITC-RP9, FP [2, 16]: −0.56 | binding to IGF-1R compared with IR, in words [5]: high binding ratios for IGF-1R over IR
Molecule: CC(C)C[C@H](NC(=O)[C@H](CCC(=O)O)NC(=O)[C@H](C)NC(=O)[C@@H](NC(=O)[C@H](Cc1ccccc1)NC(=O)[C@H](Cc1c[nH]c2ccccc12)NC(=O)[C@H](CC(=O)O)NC(=O)[C@H](Cc1ccc(O)cc1)NC(=O)[C@H](Cc1ccccc1)NC(=O)[C@H](CC(N)=O)NC(=O)[C@H](C)NC(=O)[C@H](CC(N)=O)NC(=O)[C@H](CCCNC(=N)N)NC(=O)[C@H](CCC(N)=O)NC(=O)[C@H](CC(C)C)NC(=O)[C@H](Cc1c[nH]c2ccccc12)NC(=O)[C@H](CC(=O)O)NC(=O)[C@@H](NC(=O)[C@H](CCCNC(=N)N)NC(=O)CN)C(C)C)C(C)C)C(=O)NCC(=O)O [Peptide S175]
agonist activity at IGF-1R, in words [6]: IGF-1R agonist activity | EC50 ([6]; read-out: Cellular EC50, stimulation of proliferation): 10000 nM | FFC ([12]; FFC assay potency grade, 0, + to ++++++, −): +++

Hill, sIR-Fc, b-RP9, FRET [9]: −0.49 | Hill, sIR-Fc, b-S175, FRET [10]: −0.49 | Hill, sIR, FITC-RP9, FP [13]: −0.64
Molecule: CC(C)C[C@H](NC(=O)[C@H](CCC(N)=O)NC(=O)[C@H](CCCNC(=N)N)NC(=O)[C@H](CCC(=O)O)NC(=O)[C@H](Cc1ccccc1)NC(=O)[C@H](Cc1c[nH]c2ccccc12)NC(=O)[C@H](CC(=O)O)NC(=O)[C@H](Cc1ccc(O)cc1)NC(=O)[C@H](Cc1ccccc1)NC(=O)[C@H](CO)NC(=O)[C@@H](N)CCC(=O)O)C(=O)NCC(=O)O [Peptide S390]
activity in the free fat cell (FFC) assay / at IR, in words [12]: potency similar to full-length RP9 monomer peptides | FFC ([12]; Table 6, free fat cell assay): + | FFC [12, 17]: + | FFC ([12]; free fat cell assay potency class, Table 7): +

IC50 [1]: 1000 nM
Molecule: RSEASFHVEFYSWFEEQLRS [RP-2]

IC50 [1]: > 10000 nM
Molecule: GRFYGWFQDAIDQLMPWGFD [RP-3]

IC50 [1]: 5000 nM
Molecule: PPWGARFYDAIEQLVFDNL [RP-4]

Further lines, the molecule ahead of its results:

Molecule: QSFYDYIEELLGGEWKK [Peptide 20E2-PD1-IR]
IC50 [1]: > 5000 nM

Molecule: CC[C@H](C)[C@H](NC(=O)CN)C(=O)N[C@H](C(=O)N[C@@H](CO)C(=O)N[C@@H](CCC(N)=O)C(=O)N[C@@H](CO)C(=O)N[C@H]1CSSC[C@@H](C(=O)N[C@@H](Cc2c[nH]c3ccccc23)C(=O)O)NC(=O)[C@H](Cc2c[nH]c3ccccc23)NC(=O)[C@H](Cc2c[nH]c3ccccc23)NC(=O)[C@@H]2CCCN2C(=O)[C@H](CC(=O)O)NC(=O)[C@H](CO)NC(=O)[C@H](C(C)C)NC(=O)[C@H](CCC(N)=O)NC(=O)CNC(=O)[C@H](C)NC(=O)[C@H](Cc2ccccc2)NC(=O)[C@H](Cc2c[nH]c3ccccc23)NC(=O)[C@H](CC(=O)O)NC(=O)[C@H](Cc2ccc(O)cc2)NC(=O)[C@H](Cc2ccccc2)NC(=O)[C@H](CO)NC(=O)[C@H](CCC(=O)O)NC(=O)[C@@H]2CCCN2C1=O)[C@@H](C)CC [Peptide G33] (HELM PEPTIDE1{G.I.I.S.Q.S.C.P.E.S.F.Y.D.W.F.A.G.Q.V.S.D.P.W.W.C.W}$PEPTIDE1,PEPTIDE1,7:R3-25:R3$$$V2.0; N-terminus and C-terminus assumed; bridges inferred)
potency / affinity at IR, in words ([2]; FP with FITC-RP9, summary of Table 22): less potent | Bndg Ratio IGF-1R/IR ([2]; higher values indicated higher affinity for IR than IGF-1R): 1.3 | IGF-1R agonist activity, proliferation of MCF-7 and MiaPaCa cells, in words ([3]; MCF-7 and MiaPaCa cells (Tables 27-28)): IGF-1R agonist activity | MCF-7 Agonist [3]: + | MiaPaCa Agonist [4]: + | binding to IGF-1R compared with IR, in words [5]: comparable binding to IGF-1R and IR | FDC-P2 Agonist ([6]; FDC-P2 cell proliferation, agonist effect): + | agonist activity at IGF-1R, in words [6]: IGF-1R agonist activity | EC50 ([6]; read-out: ED50, agonist activity at IGF-1R): ~10000 nM | antagonist activity at IGF-1R, in words [7]: no antagonist activity

Molecule: CC(C)C[C@H](NC(=O)[C@H](Cc1c[nH]c2ccccc12)NC(=O)[C@H](CCC(=O)O)NC(=O)[C@H](Cc1ccc(O)cc1)NC(=O)CNC(=O)[C@@H]1CCCN1C(=O)[C@H](Cc1c[nH]c2ccccc12)NC(=O)[C@@H](NC(=O)[C@@H](NC(=O)CNC(=O)CN)[C@@H](C)O)C(C)C)C(=O)N[C@@H](CCCNC(=N)N)C(=O)N[C@@H](CC(N)=O)C(=O)N[C@@H](C)C(=O)O [Peptide E8]
IC50 [8]: 2200 nM | competition with FITC-RP9 or b-RP9 peptides for binding to sIR-Fc [9]: able to compete | Hill, sIR-Fc, b-S175, FRET [10]: −0.74 | IC50 [10]: 755 nM | competition with peptide ligands such as FITC-RP9 for binding to mIR [11]: did not compete | IC50 ([11]; target mIR, label FITC-RP9, fluorescence polarization, read-out: IC50 (nM), mIR, FITC-RP9, FP): > 100000 nM | Hill, sIR-Fc, FITC-RP9, FP [2, 16]: −0.49 | IC50 ([2]; target sIR-Fc, label FITC-RP9, fluorescence polarization, read-out: IC50 (nM), sIR-Fc, FITC-RP9, FP): 207 nM | IC50 ([2]; vs. FITC-RP9, read-out: FP sIR-Fc IC50): 206 nM | binding to IGF-1R compared with IR, in words [5]: comparable binding to IGF-1R and IR | FFC [12, 17]: −

Molecule: CC(C)C[C@H](NC(=O)CNC(=O)[C@H](CCCNC(=N)N)NC(=O)CNC(=O)[C@H](CCC(=O)O)NC(=O)[C@@H](N)C(C)C)C(=O)N[C@@H](Cc1ccccc1)C(=O)N[C@@H](Cc1ccc(O)cc1)C(=O)N[C@@H](CC(=O)O)C(=O)N[C@@H](CC(C)C)C(=O)N[C@@H](CC(C)C)C(=O)N[C@@H](CCCNC(=N)N)C(=O)N[C@@H](CCC(N)=O)C(=O)N[C@@H](CC(C)C)C(=O)N[C@@H](CC(C)C)C(=O)N[C@@H](C)C(=O)N[C@@H](CCCNC(=N)N)C(=O)N[C@@H](CCCNC(=N)N)C(=O)N[C@@H](CCC(N)=O)C(=O)N[C@@H](CC(N)=O)C(=O)NCC(=O)O [20E2B-3-C6-IGFR]
Comparisons IR/IGF-1R [14]: 0.1 | Comparisons IGF-1R/IR [15]: 14.8 | IC50 [1]: > 5000 nM

Molecule: RP6-D8B12 (TFYSCLASLLTGTPQPNRGPWERCRWLEQERAWIWCEIQGSGCRA; not fully specified; cysteine pairing not given here)
MCF-7 Agonist [3]: + | MiaPaCa Agonist [4]: +

Reference: patent US20070004634A1 (Novo Nordisk A/S, priority 1998, published 2007)
